Measured values taken from US9808527B2, “Methods and compositions for treating HIV infections” (priority 2006, dated 2017).
Entries after “also recorded” stand apart in the source; their conditions may differ. Like-named read-outs stand apart in the source and are kept apart here.

Assays:
[1] = target: T1, CFP- and YFP-tagged HIV-1 protease subunits (Human immunodeficiency virus type 1 group M subtype B, UniProt P12497); type: cell-based; details: for dose response of dimerization inhibition: 0.001-10 μM (GRL-0026A 0.1-10 μM), 72 hrs
T1 construct: expressed in transfected cells; host or cells: Cos-7
Procedure: After 72 hr, cultured cells were examined in the FRET-HIV-1 assay system using confocal microscopy Fluoview FV500 confocal laser scanning microscope, and CFP^A/B were determined and plotted. […] The FRET efficiency was determined following acceptor photobleaching as previously described (Bastiaens et al., EMBO 1996; Siegel et al., Science's stke 2000; Firulli et al., Nature genetics, 2005; Szczesna et al., JBC 2003). Dequenching of the donor CFP by selective photobleaching of the acceptor YFP was performed by first obtaining YFP and CFP images at the same focal plane, followed by illuminating for 3 min the same image at wavelength of 488 nm with a laser power set at the maximum intensity to bleach YFP and re-capturing the same CFP and YFP images. The changes in the CFP and YFP fluorescence intensity in the images of selected regions were examined and quantified using Olympus FV500 Image software system. Background values were obtained from the regions where no cells were present and were subtracted from the values for the cells examined in all calculations. For each chimeric protein, the data were obtained from at least three independent experiments. FRET efficiency was determined using the formula: ET=(1−(IDA/ID))×100, where IDA and ID represent the steady-state donor fluorescence in the presence and absence of the acceptor, respectively. Digitized image data obtained from the experiment were prepared for presentation using Photoshop 6.0 (Adobe systems, Mountain View, Calif.). Ratios of intensities of ECFP fluorescence after photobleaching to ECFP fluorescence prior to photobleaching were determined. The ratios of more than 1 indicate that dimerization of CFP- and YFP-tagged protease subunits occurred and those of less than 1 indicate that dimerization was blocked by the test agent.
Generation of FRET-based HIV-1 expression assay. The basic concepts of the intermolecular fluorescence resonance energy transfer (FRET)-based HIV-1-expression assay (FRET-HIV-1 assay) are shown in FIG. 7. Within a plasmid (pHIV-1NL4-3), which encodes a full-length molecular infectious HIV-1 clone, the gene encoding a cyan fluorescent donor protein (CFP) was attached to the downstream end (C-terminus) of the gene encoding an HIV-1 protease subunit through the flexible linker added (five alanines), generating pHIV-1NL4-3/CFP (FIG. 7A). Within the other plasmid (pHIV-1NL4-3), the gene encoding a yellow fluorescent acceptor protein (YFP) was attached to the downstream end of protease-encoding gene in the same manner, generating pHIV-1NL4-3/YFP. Both CFP and YFP were designed to have phenylalanine and proline in the connection with reverse transcriptase so that the protease is cleaved from reverse transcriptase when two subunits dimerize and the dimerized protease acquires enzymatic activity. […] A focused laser beam excitation of CFP (triggered by Helium-Cadmium laser) results in rapid energy transfer to YFP, and most of the fluorescence photons are emitted by YFP (Miyawaki et al. Nature 388(6645):882-887 (1997)). If the dimerization is blocked, the average distance between CFP and YFP becomes larger and the energy transfer rate is decreased and the fraction of photons emitted by YFP is lowered.
In order to interpret the energy transfer efficiency quantitatively, an acceptor photobleaching technique was used, in which the change in CFP emission quenching is measured by comparing the value before and after selectively photobleaching YFP, which prevents problems associated with variable expression levels.

HIV-1 protease = target: T2, HIV-1 protease (Human immunodeficiency virus type 1 group M subtype B, UniProt P04585, C555A/C583A/L521I/L551I/Q495K/V491I); test: biochemical; type: biochemical
T2 construct: Wild-type PR at final concentrations of 160-190 nM were added
Text: Enzyme kinetics. The chromogenic substrate Lys-Ala-Arg-Val-Nle-p-nitroPhe-Glu-Ala-Nle-amide (Sigma, St. Louis, Mo.) was used to determine the kinetic parameters (Kovalevsky et al. J Mol Biol 363(1):161-173 (2006), Ghosh et al. J Med Chem 49(17):5252-5261 (2006)). […] The kcat and Km values were obtained employing standard data fitting techniques for a reaction obeying Michaelis-Menten kinetics. The data curves were fitted using SigmaPlot 8.0.2 (SPSS Inc., Chicago, Ill.). The active enzyme concentrations were calculated from the intercept of the linear fit to the IC50 versus [S] plots with the IC50 axis. The Ki values were obtained from the IC50 values estimated from an inhibitor dose-response curve with the spectroscopic assay using the equation Ki=(IC50-[E]/2)/(1+[S]/Km), where [E] and [S] are the PR and substrate concentrations, respectively (Maibaum & Rich J Med Chem 31(34):625-629 (1988)). The Ki values were measured at four to five substrate concentrations. The measurement was repeated at least three times to produce the average values.

HIV-1LAI = test: MTT assay, MT-2 cells exposed to HIV-1LAI (acute HIV-1 infection assay); type: cell-based
Procedure: Drug susceptibility assay. The susceptibility of HIV-1LAI, HIV-2EHO, HIV-2ROD, to various drugs and the cytotoxicity of those drugs was determined by using the MTT assay. Briefly, MT-2 cells (2×10^4/mL) were exposed to 100 TCID50s (50% tissue culture infectious doses) of HIV-1LAI, HIV-2EHO, or HIV-2ROD in the presence or absence of various concentrations of drugs in 96-well microculture plates and were incubated at 37° C. for 7 days. After 100 μL of the medium was removed from each well, 3-(4,5-dimethylthiazol-2-yl)-2,5-diphenyltetrazolium bromide (MTT) solution (10 μL, 7.5 mg/mL in phosphate-buffered saline) was added to each well in the plate, followed by incubation at 37° C. for 4 hours. […] All assays were performed in duplicate or triplicate. To determine the sensitivity of HIV-1Ba-L, HIV-1ERS104 pre, and clinical multi-drug-resistant HIV-1 isolates and different subtypes of HIV-1 isolates to drugs, phytohemagglutinin-activated peripheral blood mononuclear cells (PHA-PBMs; 10^6/mL) were exposed to 50 TCID50 (50% tissue infectious dose) of each HIV-1 isolate and cultured in the presence or absence of various concentrations of drugs in 10-fold serial dilutions in 96-well microtiter culture plates. To determine the drug susceptibility of certain laboratory HIV-1 strains (HIV-1NL4-3), MT-4 cells were used as target cells. MT-4 cells (10^5/mL) were exposed to 100 TCID50 of wild type HIV-1NL4-3 and PI-resistant HIV-1NL4-3 in the presence or absence of various concentrations of drugs and were incubated at 37° C. On day 7 of culture, the supernatant was harvested and the amount of p24 Gag protein was determined by using a fully automated chemiluminescent enzyme immunoassay system (Lumipulse F; Fujirebio Inc., Tokyo, Japan) (22). […] All assays were performed in duplicate or triplicate.

[2] = target: dimerized mature HIV-1 protease (Human immunodeficiency virus type 1 group M subtype B, UniProt P12497); test: Assay for effects on dimerized mature protease (cycloheximide, FRET); type: cell-based; details: 1 μM added on day 5 after cycloheximide 50 μg/ml
Procedure: […] Cellular protein synthesis was monitored every 24 hours by determining levels of p24 Gag protein produced into culture medium using the fully automated chemiluminescent enzyme immunoassay system (Lumipulse F; Fujirebio Inc., Tokyo, Japan). The cells were exposed to TMC114 (1 μM) on day 5 and beyond of culture and analyzed under Fluoview FV500 confocal laser scanning microscope (OLYMPUS Optical Corp) at room temperature.
When the CFP^A/B ratios determined were greater than 1.0, it was determined that HIV-1 protease had been generated and dimerization had occurred. The production of HIV-1 was monitored every 24 hours following transfection by determining levels of p24 Gag protein produced into culture medium as described by Koh et al. Antimicrob Agents Chemother 47:3123-9 (2003).
Dissociation of already formed dimer. TMC114 was examined for its ability to dissociate the protease once dimerized within cells producing infectious HIV-1 virions. Cos-7 cells were co-transfected with wild-type pNLPR-CFP and -YFP plasmids, exposed to cycloheximide (50 μg/mL) in 24, 48, 72, and 96 hrs of culture and beyond, the cells exposed to 1 μM TMC114 on day 5 of culture and beyond, cellular protein synthesis was monitored every 24 hours by determining levels of p24 Gag protein produced into culture medium, and the values of the ratio were determined at various time points. […]

HIV = details: read-out: ID50 (the source's name); cited from earlier work
[3] = MT-2 cells, 100 TCID50 of HIV-1LAI, MTT assay on day 7, read-out: IC50 against HIV-1LAI
[4] = Human immunodeficiency virus 1, MT2, 168 h, read-out: IC50 against HIV-1LAI, MT-2 cells, 100 TCID50 of HIV-1LAI, MTT assay on day 7
[5] = Human immunodeficiency virus 1, MT2, 168 h, read-out: MTT assay (IC50, nM), Human CD4+ MT-2 cells, 100 TCID50 of HIV-1LAI, day 7

CC(C)CN(C[C@@H](O)[C@H](Cc1ccccc1)NC(=O)O[C@@H]1C[C@@H]2CCO[C@@H]2C1)S(=O)(=O)c1ccc(CO)cc1 [GRL-06579A]
inhibition of protease dimerization ([1]; 1 μM, Cos-7 cells): dimerization was effectively blocked; also recorded: disrupt protease dimerization | Ki (HIV-1 protease; wild-type PR, pH 5.0, read-out: Ki against HIV-1 protease): 3.5 pM | IC50 (HIV-1LAI; [3]): 1 nM

Cc1ccnc2c1NC(=O)c1cccnc1N2C1CC1 [NVP, nevirapine]
inhibition of protease dimerization ([1]; 1 μM, Cos-7 cells): failed to inhibit the dimerization | inhibition of protease dimerization ([1]; 1 μM, Cos-7 cells, listed as nevirapine): did not block the dimerization; also recorded: failed to inhibit HIV-1 protease dimerization

CC(C)CN(C[C@@H](O)[C@H](Cc1ccccc1)NC(=O)O[C@H]1CO[C@H]2OCC[C@H]21)S(=O)(=O)c1ccc(N)cc1 [DRV, darunavir]
inhibition of protease dimerization ([1]; 1 μM, Cos-7 cells): disrupt protease dimerization | inhibition of protease dimerization ([1]; 1 μM, Cos-7 cells, listed as TMC114): dimerization was effectively blocked; also recorded: blocked the dimerization; also recorded: blocked protease dimerization | concentration effectively blocking FRET / disrupting protease dimerization ([1]; in culture, Cos-7 cells): 0.1 µM | IC50 (HIV-1LAI; [4]): 3 nM | IC50 (HIV-1LAI; [5]): ~3 nM | dissociation of already dimerized protease [2]: failed to dissociate mature protease dimer | dissociation of already dimerized protease ([2]; listed as TMC114): no inhibition of FRET was detected; also recorded: did not appear to reverse the dimerization

CC(C)CN(CC(O)C(Cc1ccccc1)NC(=O)OC1COC2OCCC12)S(=O)(=O)c1ccc(N)cc1 (centres unmarked)
IC50 (HIV): 4.5 nM

COc1ccc(S(=O)(=O)N(CC(C)C)CC(O)C(Cc2ccccc2)NC(=O)OC2COC3OCCCC23)cc1 (centres unmarked)
IC50 (HIV): 4.5 nM

Cc1nc(COc2ccc(C[C@H](NC(=O)O[C@H]3CO[C@H]4OCC[C@H]43)[C@H](O)CN(CC(C)C)S(=O)(=O)c3ccc4c(c3)OCO4)cc2)cs1 [BCV, brecanavir]
inhibition of protease dimerization ([1]; 1 μM, Cos-7 cells): disrupt protease dimerization | dose response of dimerization inhibition [1]: Dose-responsive dimerization inhibition | Ki (HIV-1 protease): 6.8 pM | IC50 (HIV-1LAI; [4]): 0.2 nM

O=C1Nc2ccc(Cl)cc2[C@@](C#CC2CC2)(C(F)(F)F)O1 [EFV, efavirenz]
inhibition of protease dimerization ([1]; 1 μM, Cos-7 cells): failed to inhibit the dimerization | inhibition of protease dimerization ([1]; 1 μM, Cos-7 cells, listed as efavirenz): did not block the dimerization; also recorded: failed to inhibit HIV-1 protease dimerization

CCC[C@@]1(CCc2ccccc2)CC(O)=C([C@H](CC)c2cccc(NS(=O)(=O)c3ccc(C(F)(F)F)cn3)c2)C(=O)O1 [TPV, tipranavir]
IC50 (HIV-1LAI; [4]): 100 nM

COc1ccc(S(=O)(=O)N(CC(C)C)CC(O)C(Cc2ccccc2)NC(=O)OC2COC3OCCC23)cc1 (centres unmarked) [drawing 20]
IC50 (HIV): 1.4 nM

COc1ccc(S(=O)(=O)N(CC(C)C)C[C@@H](O)[C@H](Cc2ccccc2)NC(=O)C[C@H]2CO[C@H]3OCC[C@@H]23)cc1 [GRL-0026A]
dose response of dimerization inhibition [1]: Dose-responsive dimerization inhibition | IC50 (HIV-1LAI; [3]): 480 nM

CCCCN1C(=O)[C@@H]([C@H](O)C2CCCCC2)NC(=O)C12CCN(Cc1ccc(Oc3ccc(C(=O)O)cc3)cc1)CC2 [aplaviroc]
inhibition of protease dimerization ([1]; 1 μM, Cos-7 cells): did not block the dimerization; also recorded: failed to inhibit the dimerization; also recorded: failed to inhibit HIV-1 protease dimerization

Nc1nc(NC2CC2)c2ncn([C@H]3C=C[C@@H](CO)C3)c2n1 [ABC, abacavir]
inhibition of protease dimerization ([1]; 10 μM, Cos-7 cells): failed to inhibit the dimerization | inhibition of protease dimerization ([1]; 10 μM, Cos-7 cells, listed as abacavir): did not block the dimerization; also recorded: failed to inhibit HIV-1 protease dimerization

Cc1ccc(S(=O)(=O)N(CC(C)C)CC(O)C(Cc2ccccc2)NC(=O)OC2COC3OCCC23)cc1 (centres unmarked)
IC50 (HIV): 3.5 nM

COc1ccc(S(=O)(=O)N(CC(C)C)CC(O)C(Cc2ccccc2)NC(=O)OC2COC3OCCC23)cc1 (centres unmarked) [TMC126]
inhibition of protease dimerization ([1]; 1 μM, Cos-7 cells): dimerization was effectively blocked; also recorded: disrupt protease dimerization | dose response of dimerization inhibition [1]: Dose-responsive dimerization inhibition | IC50 (HIV-1LAI; [4]): 0.3 nM | IC50 (HIV-1LAI; [5]): 0.3 nM
